Experiments:
Assay in all cases: ABPP quantitative MS, MCF7
Type in all cases: cell-based
Details in all cases: 30 μM (11a) 7 h vs DMSO, then 3 μM (15) 2 h
SRBD1 = molecular target: T1, SRBD1 (Homo sapiens, UniProt Q8N5C6)
T1 construct: endogenous in cells; host or cells: MCF7
Protocol: (§1) control and cells treated with control compounds (11i) and (17) at 30 µM). HOIP RBR wild type […]
(§2) nm, indicating low to no labelling by (11a), and a dominant signal from the 800 channel (green).
(§3) C = HOIP RBR control (0.5 µg).
(§4) 5.2 Activity-based protein profiling – Enrichment and LC-MS
(§5) Cell culture and transfection, compound treatment, ha rvest and lysis
(§6) HEK293T cells were cultured and transfected as describ ed in section 4.8 above. MCF7 cells were seeded in 100 mm Petri dishes at 6 × 10^5 cells/dish and cultured overnight at 37 °C as described in section 4.8 above. Both cell types were treated with inhibitor (11a) (30 µM final concentration) or DMSO as described above, incubating for 7 h at 37 °C, followed by addition of clickable probe (15) (3 µM final concentration) and incubation for an additional 2 h. The cells were then harvested and lysed (50 mM Tris-HCl, pH 7.5, 1.5 mM MgCl2, 150 mM NaCl, 5% glycerol, 0.8% v/v IGEPAL-CA630, 25 mM NaF, 1 mM Na3VO4, complete protease inhibitor), and the protein concentration was determined by the BCA assay as described in section 4.7 above.
(§7) Enrichment of TCO-labelled proteins
(§8) Similar to a previously described protocol,22 tetrazine beads were generated by incubating high capacity neutravidin beads (500 µL; Thermo Scientific) with 0.1 µmol tetrazine-PEG4-biotin (Jena Bioscience) in PBS buffer over night at 4 °C, followed by blocking with 5 µL 100 mM biotin in DMSO for 30 minutes at 4 °C. The beads were washed 3× with buffer (50 mM Tris-HCl pH 7.4, 5% glycerol, 1.5 mM MgCl2, 150 mM NaCl, 1 mM Na3VO3, 5 mM NaF) supplemented with 0.4% IGEPAL CA-630 and adjusted to a 5% v/v slurry.
(§9) Lysate with a protein concentration of approx. 2 mg/mL (500 µL) were added to the TCO beads (35 µL) on a 96-well filter plate (Porvair, Dunn #240002) and incubated at 4°C for 2 h. After incubation, beads were washed using a vacuum manifold with 5 mL wash buffer 1 (WB1) (50 mM […]
(§10) (50 mM HEPES pH 8.5, 2 M urea), and 5 mL WB4 (50 mM HEPES pH 8.5). Proteins were then eluted by on bead digestion: 60 µL elution buffer (50 mM HEPES pH 8.5, 5 mM Tris-(2-carboxyethyl)phosphine, 15 mM chloroacetamide, 0.004 µg LysC/ µL (Wako chemicals), 0.004 µg trypsin/µL (Promega)) were added to the washed beads and incubated over night at room temperature. Eluates were collected by centrifugation, beads incubated with an additional 60 µL WB4, eluted and both eluates were combined and lyophilized. […]
(§11) proportional to the number of ions; this measure is referred to as ion area.24 Spectra matching to peptides were filtered according to the following criteria: mascot ion score >15, signal-to-background of the precursor ion >4, and signal -to-interference >0.5. Fold-changes were corrected for isotope purity and adjusted for interference caused by co-eluting nearly isobaric peaks.25 Protein quantification was derived from individual spectra matching to distinct peptides by using a sum-based bootstrap algorithm; 95% confidence intervals were calculated for all protein fold-changes that were quantified with more than three spectra.23 Relative protein abundance s were generated on the basis of MS1 abundances .26 Briefly, XIC peaks were matched to identified peptides. […] These values were then summed, and the mean was calculated.
(§12) In cases where fewer than 3 sequences were associated, the mean was calculated using XIC intensities from either one or two sequences.
(§13) Proteins were filtered for >1 quantified spectra matches (qusm). Residual binding was calculated […]

DHX36 = molecular target: T2, DHX36 (Homo sapiens, UniProt Q9H2U1)
T2 construct: endogenous in cells; host or cells: MCF7
T2 sequence (Q9H2U1 whole entry): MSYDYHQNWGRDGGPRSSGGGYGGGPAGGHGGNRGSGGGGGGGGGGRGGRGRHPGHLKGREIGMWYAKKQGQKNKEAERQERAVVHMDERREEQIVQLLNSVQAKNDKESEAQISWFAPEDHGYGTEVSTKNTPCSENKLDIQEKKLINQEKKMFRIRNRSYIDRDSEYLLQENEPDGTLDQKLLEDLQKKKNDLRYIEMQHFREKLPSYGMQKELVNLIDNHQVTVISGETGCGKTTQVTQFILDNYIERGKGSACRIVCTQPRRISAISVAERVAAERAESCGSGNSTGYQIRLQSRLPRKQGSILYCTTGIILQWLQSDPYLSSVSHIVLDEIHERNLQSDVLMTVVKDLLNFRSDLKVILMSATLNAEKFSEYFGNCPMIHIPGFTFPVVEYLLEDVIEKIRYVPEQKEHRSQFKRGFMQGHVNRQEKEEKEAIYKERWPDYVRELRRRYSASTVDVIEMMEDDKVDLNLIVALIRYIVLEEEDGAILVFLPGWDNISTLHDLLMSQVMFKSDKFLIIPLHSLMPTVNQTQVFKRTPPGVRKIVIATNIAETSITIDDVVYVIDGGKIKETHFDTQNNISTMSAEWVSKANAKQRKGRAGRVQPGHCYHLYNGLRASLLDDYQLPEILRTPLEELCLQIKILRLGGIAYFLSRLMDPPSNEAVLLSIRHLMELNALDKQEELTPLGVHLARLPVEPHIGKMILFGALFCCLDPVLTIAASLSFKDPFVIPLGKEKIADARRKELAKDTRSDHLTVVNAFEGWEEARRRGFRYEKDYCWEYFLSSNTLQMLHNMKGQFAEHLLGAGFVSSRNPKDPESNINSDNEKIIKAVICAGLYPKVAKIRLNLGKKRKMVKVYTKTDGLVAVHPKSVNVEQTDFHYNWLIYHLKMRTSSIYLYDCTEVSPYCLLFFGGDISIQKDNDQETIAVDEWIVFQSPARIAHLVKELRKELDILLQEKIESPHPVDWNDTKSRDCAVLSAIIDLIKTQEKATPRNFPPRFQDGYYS
Protocol: as §1, §2, §3, §4, §5, §6, §7, §8, §9, §10, §11, §12, §13

GCLC = molecular target: T3, GCLC (Homo sapiens, UniProt P48506)
T3 construct: endogenous in cells; host or cells: MCF7
T3 sequence (P48506 whole entry): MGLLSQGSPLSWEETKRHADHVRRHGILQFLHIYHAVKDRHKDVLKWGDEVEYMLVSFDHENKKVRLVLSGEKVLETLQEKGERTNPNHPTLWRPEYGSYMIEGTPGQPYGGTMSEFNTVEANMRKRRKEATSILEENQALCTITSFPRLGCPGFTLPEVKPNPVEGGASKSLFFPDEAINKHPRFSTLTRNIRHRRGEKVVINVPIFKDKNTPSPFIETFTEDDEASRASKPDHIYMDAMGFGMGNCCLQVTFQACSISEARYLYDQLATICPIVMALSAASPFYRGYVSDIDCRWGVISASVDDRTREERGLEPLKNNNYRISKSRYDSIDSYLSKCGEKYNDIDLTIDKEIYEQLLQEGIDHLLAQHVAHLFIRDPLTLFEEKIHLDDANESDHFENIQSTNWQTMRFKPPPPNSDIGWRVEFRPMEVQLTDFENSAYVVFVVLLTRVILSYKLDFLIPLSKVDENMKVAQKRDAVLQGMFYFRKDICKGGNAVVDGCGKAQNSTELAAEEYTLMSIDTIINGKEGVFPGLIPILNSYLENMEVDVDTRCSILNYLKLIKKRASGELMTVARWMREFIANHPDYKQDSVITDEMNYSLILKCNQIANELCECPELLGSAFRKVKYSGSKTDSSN
Protocol: as §1, §2, §3, §4, §5, §6, §7, §8, §9, §10, §11, §12, §13

SMG9 = molecular target: T4, SMG9 (Homo sapiens, UniProt Q9H0W8)
T4 construct: endogenous in cells; host or cells: MCF7
T4 sequence (Q9H0W8 whole entry): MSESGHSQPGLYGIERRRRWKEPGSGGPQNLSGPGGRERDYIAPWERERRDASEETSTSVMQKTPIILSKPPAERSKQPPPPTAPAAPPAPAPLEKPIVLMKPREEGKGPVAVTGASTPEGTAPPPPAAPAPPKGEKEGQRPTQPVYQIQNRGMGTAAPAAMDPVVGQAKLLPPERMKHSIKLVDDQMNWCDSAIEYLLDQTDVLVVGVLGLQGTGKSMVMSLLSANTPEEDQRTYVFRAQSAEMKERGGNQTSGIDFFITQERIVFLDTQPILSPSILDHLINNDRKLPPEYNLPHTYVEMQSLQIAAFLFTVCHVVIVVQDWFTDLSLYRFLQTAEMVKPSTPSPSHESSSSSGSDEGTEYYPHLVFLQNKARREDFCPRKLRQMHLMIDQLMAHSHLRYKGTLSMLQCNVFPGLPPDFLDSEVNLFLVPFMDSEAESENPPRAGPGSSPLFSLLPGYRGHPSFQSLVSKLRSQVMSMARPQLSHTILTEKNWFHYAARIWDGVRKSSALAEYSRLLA
Protocol: as §1, §2, §3, §4, §5, §6, §7, §8, §9, §10, §11, §12, §13

ALDH6A1 = molecular target: T5, ALDH6A1 (Homo sapiens, UniProt Q02252)
T5 construct: endogenous in cells; host or cells: HEK293T (A21); MCF7 (A27)
T5 sequence (Q02252 34-535): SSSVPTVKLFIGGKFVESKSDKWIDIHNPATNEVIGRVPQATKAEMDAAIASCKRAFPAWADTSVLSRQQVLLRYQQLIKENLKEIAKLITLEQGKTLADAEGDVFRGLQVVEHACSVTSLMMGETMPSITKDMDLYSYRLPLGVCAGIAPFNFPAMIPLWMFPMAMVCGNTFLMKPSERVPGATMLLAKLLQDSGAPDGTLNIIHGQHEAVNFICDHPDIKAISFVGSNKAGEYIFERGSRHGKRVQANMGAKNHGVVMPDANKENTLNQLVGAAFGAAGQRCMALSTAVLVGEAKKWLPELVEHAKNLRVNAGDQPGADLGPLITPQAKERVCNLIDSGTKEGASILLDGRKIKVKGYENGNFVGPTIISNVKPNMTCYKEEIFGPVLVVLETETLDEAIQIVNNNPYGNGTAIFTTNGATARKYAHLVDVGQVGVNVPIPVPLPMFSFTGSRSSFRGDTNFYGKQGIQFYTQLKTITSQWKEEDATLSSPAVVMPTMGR
Protocol: as §1, §2, §3, §4, §5, §6, §7, §8, §9, §10, §11, §12, §13

T1 sequence (Q8N5C6 whole entry): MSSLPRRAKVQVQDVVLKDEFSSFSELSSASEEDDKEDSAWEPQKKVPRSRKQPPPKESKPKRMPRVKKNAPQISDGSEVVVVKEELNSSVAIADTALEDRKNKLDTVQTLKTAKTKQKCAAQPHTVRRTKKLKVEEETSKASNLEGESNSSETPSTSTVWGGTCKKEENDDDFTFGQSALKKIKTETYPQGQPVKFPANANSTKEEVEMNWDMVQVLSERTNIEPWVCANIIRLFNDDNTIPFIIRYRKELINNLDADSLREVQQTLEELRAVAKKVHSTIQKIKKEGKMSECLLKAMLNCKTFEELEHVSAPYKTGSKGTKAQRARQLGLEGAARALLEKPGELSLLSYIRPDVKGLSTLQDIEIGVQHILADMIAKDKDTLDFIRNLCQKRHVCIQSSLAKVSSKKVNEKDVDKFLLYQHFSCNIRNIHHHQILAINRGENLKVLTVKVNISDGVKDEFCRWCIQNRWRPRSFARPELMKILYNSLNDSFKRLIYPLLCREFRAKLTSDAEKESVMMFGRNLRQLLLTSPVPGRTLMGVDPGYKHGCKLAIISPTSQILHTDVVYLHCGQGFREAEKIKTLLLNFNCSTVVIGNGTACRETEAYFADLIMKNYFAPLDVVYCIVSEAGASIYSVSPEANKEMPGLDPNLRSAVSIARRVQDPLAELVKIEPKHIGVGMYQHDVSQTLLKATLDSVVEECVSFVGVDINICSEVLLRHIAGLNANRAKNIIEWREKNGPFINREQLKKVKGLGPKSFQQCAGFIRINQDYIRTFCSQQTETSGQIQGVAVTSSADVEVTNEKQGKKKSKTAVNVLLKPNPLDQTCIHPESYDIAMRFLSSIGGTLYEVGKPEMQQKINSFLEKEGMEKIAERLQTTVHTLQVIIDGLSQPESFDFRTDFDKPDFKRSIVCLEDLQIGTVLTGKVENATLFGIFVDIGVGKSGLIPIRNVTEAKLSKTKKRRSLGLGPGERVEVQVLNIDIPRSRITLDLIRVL

COC(=O)/C=C/CNC(=O)c1cc2c([nH]c1=O)CCCC2 [Compound 11a]
ratio: mean ratio between control and competition samples, SRBD1 (SRBD1): -0.7897 log2
ratio: mean ratio between control and competition samples, DHX36 (DHX36): -0.8884 log2
ratio: mean ratio between control and competition samples, GCLC (GCLC): -0.8853 log2
ratio: mean ratio between control and competition samples, SMG9 (SMG9): -0.8383 log2
ratio: mean ratio between control and competition samples, ALDH6A1 (ALDH6A1): -0.9838 log2

Source: PMC6383986, “Fragment-Based Covalent Ligand Screening Enables Rapid Discovery of Inhibitors for the RBR E3 Ubiquitin Ligase HOIP” (Journal of the American Chemical Society, 2019)
